From ChEMBL document CHEMBL4680302, “Biologic-like In Vivo Efficacy with Small Molecule Inhibitors of TNFα Identified Using Scaffold Hopping and Structure-Based Drug Design Approaches” (J Med Chem, 2020)
Converted amounts (≈) assume the structure as drawn.

Assays:
Tumor necrosis factor [1] = molecular target: T1, Tumor necrosis factor (Homo sapiens, UniProt P01375); assay: Displacement of fluorescent labeled probe from human recombinant His-tagged TNFalpha (77 to 233 residues) expressed in Escherichia coli preincubated for 1 hr followed by fluorogenic probe addition and measured after 3 hrs by HTRF assay
T1 sequence (P01375 whole entry, the tested form may be a part): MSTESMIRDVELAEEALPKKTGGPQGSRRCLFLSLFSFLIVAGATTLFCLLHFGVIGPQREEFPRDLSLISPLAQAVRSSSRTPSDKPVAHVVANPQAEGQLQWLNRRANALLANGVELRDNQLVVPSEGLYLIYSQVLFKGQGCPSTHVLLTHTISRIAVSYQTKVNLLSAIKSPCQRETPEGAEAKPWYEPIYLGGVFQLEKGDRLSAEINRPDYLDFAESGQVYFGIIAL

[2] = Metabolic stability in human liver microsomes assessed as parent compound remaining after 10 mins; format: ADME, Microsome; conditions: read-out: Stabilty
Tumor necrosis factor [3] = molecular target: T1, Tumor necrosis factor; assay: Inhibition of human recombinant His-tagged TNF-alpha-mediated E-selectin expression in HUVEC cells preincubated for 30 mins in presence of TNFalpha and measured after 3 hrs by flow cytometry analysis; format: cell-based
[4] = Metabolic stability in mouse liver microsomes assessed as half-life; format: ADME, Microsome
[5] = Permeability of the compound across apical to basolateral side of membrane in human Caco-2 cells; format: ADME, cell-based; conditions: read-out: permeability
[6] = Permeability of the compound across basolateral to apical side of membrane in human Caco-2 cells; format: ADME, cell-based; conditions: read-out: permeability
Cytochrome P450 2C8 = molecular target: T2, Cytochrome P450 2C8 (Homo sapiens, UniProt P10632); assay: Inhibition of recombinant CYP2C8 (unknown origin); format: ADME
T2 sequence (P10632 whole entry): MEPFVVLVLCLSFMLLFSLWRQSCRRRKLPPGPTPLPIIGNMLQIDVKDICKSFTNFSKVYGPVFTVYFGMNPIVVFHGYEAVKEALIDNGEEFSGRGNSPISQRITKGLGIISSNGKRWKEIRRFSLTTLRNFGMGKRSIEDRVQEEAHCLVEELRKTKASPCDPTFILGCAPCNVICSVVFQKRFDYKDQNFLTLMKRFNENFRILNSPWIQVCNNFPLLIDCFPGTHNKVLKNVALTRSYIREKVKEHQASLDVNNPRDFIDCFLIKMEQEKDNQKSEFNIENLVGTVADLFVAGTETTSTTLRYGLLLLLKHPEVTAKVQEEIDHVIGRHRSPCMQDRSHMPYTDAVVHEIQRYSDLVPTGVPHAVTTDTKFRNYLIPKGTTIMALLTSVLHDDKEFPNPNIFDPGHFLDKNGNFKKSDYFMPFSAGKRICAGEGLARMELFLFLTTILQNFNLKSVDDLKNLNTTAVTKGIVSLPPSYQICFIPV

Cytochrome P450 2D6 = Cytochrome P450 2D6 (Homo sapiens, UniProt P10635); assay: Inhibition of recombinant CYP2D6 (unknown origin); format: ADME
Chain of Cytochrome P450 2D6 (P10635 whole entry): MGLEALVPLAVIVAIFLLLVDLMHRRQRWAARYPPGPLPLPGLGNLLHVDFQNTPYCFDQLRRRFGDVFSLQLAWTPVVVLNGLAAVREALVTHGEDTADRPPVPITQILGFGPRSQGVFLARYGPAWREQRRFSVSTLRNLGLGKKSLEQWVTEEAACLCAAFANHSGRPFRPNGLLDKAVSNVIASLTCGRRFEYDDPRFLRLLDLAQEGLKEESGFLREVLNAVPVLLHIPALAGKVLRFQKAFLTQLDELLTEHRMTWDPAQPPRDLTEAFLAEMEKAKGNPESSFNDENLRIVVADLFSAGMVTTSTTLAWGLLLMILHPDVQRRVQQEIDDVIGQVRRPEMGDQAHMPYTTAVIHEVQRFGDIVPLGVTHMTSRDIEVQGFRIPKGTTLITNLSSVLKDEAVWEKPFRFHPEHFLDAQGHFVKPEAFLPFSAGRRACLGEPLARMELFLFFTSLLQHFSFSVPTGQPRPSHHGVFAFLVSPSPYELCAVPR

[7] = Protein binding in human assessed as unbound fraction; format: ADME
[8] = Protein binding in rat assessed as unbound fraction; format: ADME
[9] = Solubility of compound; format: physicochemical
[10] = Total AUC in mouse at 0.5 mg/kg, iv; format: ADME, organism-based; parameters: route intravenous, time AUCmax, dose 0.5 mg/kg; conditions: in vivo
[11] = Total AUC in mouse at 2 mg/kg, po; format: ADME, organism-based; parameters: time AUCmax, route oral, dose 2 mg/kg; conditions: in vivo
[12] = Half-life in mouse at 0.5 mg/kg, iv; format: ADME, organism-based; conditions: in vivo
[13] = Oral bioavailability in mouse at 2 mg/kg; format: ADME, organism-based; conditions: in vivo
Mus musculus [14] = assay: Antiarthritic activity against anticollagen antibody-induced arthritis BALB/c mouse model assessed as reduction in LPS-induced IL-1beta production administered orally twice daily followed by LPS stimulation after 6 hrs measured on day 12 by RT-PCR analysis; format: functional, organism-based; conditions: dose 2-10 mg/kg, time 12.0 day
Mus musculus [15] = assay: Antiarthritic activity against anticollagen antibody-induced arthritis BALB/c mouse model assessed as reduction in LPS-induced IL-6 production administered orally twice daily followed by LPS stimulation after 6 hrs measured on day 12 by RT-PCR analysis; format: functional, organism-based; conditions: dose 2-10 mg/kg, time 12.0 day
Mus musculus [16] = assay: Antiarthritic activity against anticollagen antibody-induced arthritis BALB/c mouse model assessed as reduction in LPS-induced TNFalpha production administered orally twice daily followed by LPS stimulation after 6 hrs measured on day 12 by RT-PCR analysis; format: functional, organism-based; conditions: dose 2-10 mg/kg, time 12.0 day
Mus musculus [17] = assay: Antiarthritic activity against anticollagen antibody-induced arthritis BALB/c mouse model assessed as reduction in LPS-induced MCP-1 levels administered orally twice daily followed by LPS stimulation after 6 hrs measured on day 12 by RT-PCR analysis; format: functional, organism-based; conditions: dose 2-10 mg/kg, time 12.0 day
Mus musculus [18] = assay: Antiarthritic activity against anticollagen antibody-induced arthritis BALB/c mouse model assessed as reduction in LPS-induced CXCL12 levels administered orally twice daily followed by LPS stimulation after 6 hrs measured on day 12 by RT-PCR analysis; format: functional, organism-based; conditions: dose 2-10 mg/kg, time 12.0 day
Mus musculus [19] = assay: Antiarthritic activity against anticollagen antibody-induced arthritis BALB/c mouse model assessed as reduction in LPS-induced CXCL10 levels administered orally twice daily followed by LPS stimulation after 6 hrs measured on day 12 by RT-PCR analysis; format: functional, organism-based; conditions: dose 2-10 mg/kg, time 12.0 day
[20] = Selectivity ratio of drug exposure in TNFalpha-induced C57BL/6J mouse at 25 mg/kg, po at 3 hrs post dose to IC50 for inhibition of human TNFalpha expressed in HEK-Blue-CD40L cells assessed as inhibition of NFkappaB activation by quanti-blue based SEAP assay
[21] = Selectivity ratio of drug exposure in anticollagen antibody-induced arthritis BALB/c mouse model at 10 mg/kg, po BID for 12 days to IC50 for inhibition of human TNFalpha expressed in HEK-Blue-CD40L cells assessed as inhibition of NFkappaB activation by quanti-blue based SEAP assay
[22] = molecular target: T3, Tumor necrosis factor receptor superfamily member 1A (Homo sapiens) (UniProt P19438); assay: Binding affinity to TNFR1 (unknown origin) assessed as sedimentation coefficient (S) value at 25 uM by ultracentrifugation analysis (reference value: 2.2)
T3 sequence (whole entry): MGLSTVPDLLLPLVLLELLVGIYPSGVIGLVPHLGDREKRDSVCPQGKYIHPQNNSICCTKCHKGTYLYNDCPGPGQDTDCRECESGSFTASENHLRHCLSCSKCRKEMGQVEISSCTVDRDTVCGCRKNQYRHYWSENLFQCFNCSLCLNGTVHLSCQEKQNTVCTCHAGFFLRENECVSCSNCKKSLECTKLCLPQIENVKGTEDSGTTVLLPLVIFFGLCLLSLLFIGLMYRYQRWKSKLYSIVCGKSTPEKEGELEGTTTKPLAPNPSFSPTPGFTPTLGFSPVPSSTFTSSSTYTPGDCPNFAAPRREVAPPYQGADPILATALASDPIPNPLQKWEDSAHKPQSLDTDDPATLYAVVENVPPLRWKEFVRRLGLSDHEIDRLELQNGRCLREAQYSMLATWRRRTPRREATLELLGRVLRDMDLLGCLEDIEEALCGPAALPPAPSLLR

[23] = molecular target: T3, Tumor necrosis factor receptor superfamily member 1A (Homo sapiens); assay: Binding affinity to TNFR1 (unknown origin) assessed as apparent molecular weight of protein at 25 uM by ultracentrifugation analysis (reference value: 27 kDa)
[24] = Selectivity ratio of drug exposure in anticollagen antibody-induced arthritis BALB/c mouse model at 2 mg/kg, po BID for 12 days to IC50 for inhibition of human TNFalpha expressed in HEK-Blue-CD40L cells assessed as inhibition of NFkappaB activation by quanti-blue based SEAP assay

## Cc1nc2cc(F)c(-c3cnc(C(C)(C)O)nc3)nc2c(N[C@H](C)c2cc(C#N)ccc2F)c1Cl
Tumor necrosis factor [1]
  IC50: 0.025 µM
[2]
  remaining at 10 min: 95%
Tumor necrosis factor [3]
  IC50: 0.03 µM
[4]
  half-life: 1.3 h
[5]
  Papp A→B: 20 ×10⁻⁶ cm/s
[6]
  Papp B→A: 8 ×10⁻⁶ cm/s
Cytochrome P450 2C8
  IC50: > 6.7 µM
Cytochrome P450 2D6
  IC50: > 20 µM
[7]
  Fu: 0.35%
[8]
  Fu: 0.4%
[9]
  solubility: 1 µg/mL (≈ 2.02 µM)
[10]
  AUC: 2.5 µM·h
[11]
  AUC: 5.9 µM·h
[12]
  half-life: 6.2 h
[13]
  bioavailability: 58%
Mus musculus [14]
  Activity: Dose-dependent effect
Mus musculus [15]
  Activity: Dose-dependent effect
Mus musculus [16]
  Activity: Dose-dependent effect
Mus musculus [17]
  Activity: Dose-dependent effect
Mus musculus [18]
  Activity: Dose-dependent effect
Mus musculus [19]
  Activity: Dose-dependent effect
[20]
  Selectivity ratio: 7
[21]
  Selectivity ratio: 4.4
[22]
  Activity index: 2.2
[23]
  Activity: 27 kDa
[24]
  Ratio: 1
